Measurements published in patent US10730868B2, “Bicyclic heteroaryl substituted compounds” (BRISTOL-MYERS SQUIBB COMPANY, priority 2016, dated 2020).

What follows are molecules tested against PAR4 (Homo sapiens (Human), UniProt Q96RI0) (assay: PAR4 FLIPR assay (antagonism of agonist-peptide-induced calcium mobilization)). Settings: H-Ala-Phe(4-F)-Pro-Gly-Trp-Leu-Val-Lys-Asn-Gly-NH2-induced intracellular calcium mobilization, PAR4-expressing HEK293 cells; read-out: PAR4 FLTPR assay (IC50).
Assay type: cell-based
Source text: The Fluorometric Imaging Plate Reader (FLIPR) assay is an exemplary in vitro assay for measuring the activity of the PAR4 antagonists of the present invention. In this assay, intracellular calcium mobilization is induced in PAR4 expressing cells by a PAR4 agonist and calcium mobilization is monitored.
HEK293 cells stably expressing PAR4 were generated by a standard method of transfection of human PAR4 (F2R23) cDNA expression vector and selected based on PAR4 protein expression or mRNA expression. […] These cells also express endogenous PAR1 and can elicit calcium signal upon stimulation with PAR1 agonist peptide. Therefore, the same cells were also used to determine selectivity against PAR1 and agonist activity for both receptors. Cells from HEK293 PAR4 Clone 1.2A (BMS Arctic ID 383940) were propagated and used for calcium mobilization studies.
FLIPR-based calcium mobilization assay in HEK293 cells was used to measure PAR4 antagonism agonism, and selectivity against PAR1. The activity of the PAR4 antagonists of the present invention were tested in PAR4 expressing cells by monitoring H-Ala-Phe(4-F)-[…]NH2-induced intracellular calcium mobilization. Counter screens for agonist activity and PAR1 antagonist activity were also performed. Briefly, PAR/PAR4-expressing HEK293 cells were grown in DMEM (Life Technology, Grand Island, N.Y.) containing 10% heat-inactivated FBS, 1% Penicillin-Streptomycin, 10 μg/mL blasticidin, and 100 μg/mL Zeocin at 37° C. with 5% CO2. Cells were plated overnight prior to the experiment in a black 384-well Purecoat Amine clear bottom plate (Becton Dickinson Biosciences, San Jose, Calif.) at 10,000 cells/well in 30 μL growth medium and incubated in a humidified chamber at 37° C. with 5% CO2 overnight. Prior to compound addition, the cell medium was replaced with 40 μL of 1× calcium and magnesium-containing Hank's Balanced Saline Solution (HBSS) (with 20 mM HEPES) and 1:1000 diluted fluorescent calcium indicator (Codex Biosolutions, Gaithersburg, Md.). After a 30 minute incubation period at 37° C. and a further 30 minute incubation and equilibration period at room temperature, 20 μL test compound (diluted in 1×HBSS buffer) was added at various concentrations at 0.17% dimethyl sulfoxide (DMSO) final concentration. Changes in fluorescence intensity were measured using a Functional Drug Screening System (FDSS, Hamamatsu, Japan) to determine agonist activities. The cells were then incubated for 30 minutes at room temperature followed by addition of 20 μL of agonist peptide for antagonist activity measurement. […] Compound potency was derived from 11-point concentration-response curves.

Sequence of PAR4 (Q96RI0 18-385): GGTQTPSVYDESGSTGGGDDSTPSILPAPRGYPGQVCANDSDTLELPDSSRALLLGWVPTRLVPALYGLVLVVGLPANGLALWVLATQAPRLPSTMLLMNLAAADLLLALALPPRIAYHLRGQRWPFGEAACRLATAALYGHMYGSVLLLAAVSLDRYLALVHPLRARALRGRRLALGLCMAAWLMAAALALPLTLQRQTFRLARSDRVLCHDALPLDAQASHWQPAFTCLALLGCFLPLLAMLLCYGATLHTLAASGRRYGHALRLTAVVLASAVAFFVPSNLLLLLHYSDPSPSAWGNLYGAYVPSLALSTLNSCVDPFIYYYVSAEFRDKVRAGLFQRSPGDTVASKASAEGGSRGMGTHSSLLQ

SMILES	IC50 [nM]
COc1cnc2c(-c3nc4cc(F)c(O[C@@H]5CC[C@@H]5OC(=O)Nc5cnc(OC[C@@H](C)O)nc5)cc4s3)cc(C)cc2n1 (stereo in doubt) [Example 62, cis-2-((5-fluoro-2-(2-methoxy-7-methylquinoxalin-5-yl)benzo[d]thiazol-6-yl)oxy)cyclobutyl (2-((R)-2-hydroxypropoxy)pyrimidin-5-yl)carbamate (Homochiral)]	6.9
COc1cnc2c(-c3nc4cc(F)c(O[C@@H]5CC[C@@H]5OC(=O)Nc5cnc(OCCO)nc5)cc4s3)cc(C)cc2c1 (stereo in doubt) [Example 74, cis-2-((5-fluoro-2-(3-methoxy-6-methylquinolin-8-yl)benzo[d]thiazol-6-yl)oxy)cyclo butyl (2-(2-hydroxyethoxy)pyrimidin-5-yl)carbamate (Homochiral)]	8.9
COc1cnc2c(-c3nc4cc(F)c(O[C@@H]5CC(F)(F)C[C@@H]5OC(=O)Nc5cnc(C)nc5)cc4s3)cc(C)cc2n1 (stereo in doubt) [Example 99, (cis)-4,4-difluoro-2-((5-fluoro-2-(2-methoxy-7-methylquinoxalin-5-yl)benzo[d]thiazol-6-yl)oxy)cyclopentyl (2-methylpyrimidin-5-yl)carbamate (Homochiral)]	32
COc1cnc2c(-c3nc4cc(F)c(O[C@H]5CC(F)(F)CC[C@H]5OC(=O)Nc5cnc(OCCO)nc5)cc4s3)cc(C)cc2n1 [Example 1]	1.6
COc1cnc2c(-c3nc4cc(F)c(O[C@H]5CC(F)(F)CC[C@H]5OC(=O)Nc5ccc(C(=O)NCC(C)(C)O)nc5)cc4s3)cc(C)cc2n1 [Example 2]	0.46
COc1cnc2c(-c3nc4cc(F)c(O[C@H]5CC(F)(F)CC[C@H]5OC(=O)Nc5cnc(CCO)nc5)cc4s3)cc(C)cc2n1 [Example 3]	0.82
COc1cnc2c(-c3nc4cc(F)c(O[C@H]5CC(F)(F)CC[C@H]5OC(=O)Nc5cnc(C)nc5)cc4s3)cc(C)cc2n1 [Example 4]	1.9
COc1cnc2c(-c3nc4cc(F)c(O[C@H]5CC(F)(F)CC[C@H]5OC(=O)Nc5ccc(CCO)nc5)cc4s3)cc(C)cc2n1 [Example 5]	6.8

Same assay, conditions: H-Ala-Phe(4-F)-[…]NH2-induced intracellular calcium mobilization, PAR4-expressing HEK293 cells; read-out: PAR4 FLTPR assay (IC50)

SMILES	IC50 [nM]
COc1ccc(NC(=O)O[C@H]2CCOC[C@H]2Oc2cc3sc(-c4cc(C#N)cc5nc(OC)cnc45)nc3cc2F)cn1 (racemic) [Example 89, rac-cis-3-((2-(7-cyano-2-methoxyquinoxalin-5-yl)-5-fluorobenzo[d]thiazol-6-yl)oxy)tetrahydro-2H-pyran-4-yl (6-methoxypyridin-3-yl)carbamate]	3.8
COc1cnc2c(-c3nc4cc(F)c(O[C@@H]5CN(C(=O)OCc6ccccc6)C[C@H]5O)cc4s3)cc(C)cc2n1 (racemic) [Example 90, rac-trans-benzyl 3-((5-fluoro-2-(2-methoxy-7-methylquinoxalin-5-yl)benzo[d]thiazol-6-yl)oxy)-4-hydr oxopyrrolidine-1-carboxylate]	330
COc1cnc2c(-c3nc4cc(F)c(O[C@@H]5CN(C(=O)OC(C)(C)C)CC[C@@H]5OC(=O)Nc5cnc(C)nc5)cc4s3)cc(C)cc2n1 (racemic) [Example 91, rac-cis-tert-butyl 3-((5-fluoro-2-(2-methoxy-7-methylquinoxalin-5-yl)benzo[d]thiazol-6-yl)oxy)-4-(((2-methylpyrimidin-5-yl)carbamoyl)oxy)piperidine-1-carboxylate]	3.8
COc1ccc(NC(=O)O[C@H]2CCN(C(=O)OC(C)(C)C)C[C@H]2Oc2cc3sc(-c4cc(C)cc5nc(OC)cnc45)nc3cc2F)cn1 (racemic) [Example 92, rac-cis-tert-butyl 3-((5-fluoro-2-(2-methoxy-7-methylquinoxalin-5-yl)benzo[d]thiazol-6-yl)oxy)-4-(((6-methoxypyridin-3-yl)carbamoyl)oxy)piperidine-1-carboxylate]	12
COc1cnc2c(-c3nc4cc(F)c(O[C@@H]5CN(C(C)=O)CC[C@@H]5OC(=O)Nc5cnc(C)nc5)cc4s3)cc(C)cc2n1 (racemic) [Example 94, rac-cis-1-acetyl-3-((5-fluoro-2-(2-methoxy-7-methylquinoxalin-5-yl)benzo[d]thiazol-6-yl)oxy)piperidin-4-yl (2-methylpyrimidin-5-yl)carbamate]	2300
COc1cnc2c(-c3nc4cc(F)c(O[C@@H]5CN(S(C)(=O)=O)CC[C@@H]5OC(=O)Nc5cnc(C)nc5)cc4s3)cc(C)cc2n1 (racemic) [Example 95, rac-cis-3-((5-fluoro-2-(2-methoxy-7-methylquinoxalin-5-yl)benzo[d]thiazol-6-yl)oxy)-1-(methylsulfonyl)piperidin-4-yl (2-methylpyrimidin-5-yl)carbamate]	72
COc1cnc2c(-c3nc4cc(F)c(O[C@@H]5CN(C(=O)C(F)(F)F)CC[C@@H]5OC(=O)Nc5cnc(C)nc5)cc4s3)cc(C)cc2n1 (racemic) [Example 96, rac-cis-3-((5-fluoro-2-(2-methoxy-7-methylquinoxalin-5-yl)benzo[d]thiazol-6-yl)oxy)-1-(2,2,2-trifluoroacetyl)piperidin-4-yl (2-methylpyrimidin-5-yl)carbamate]	44
COc1cnc2c(-c3nc4cc(F)c(O[C@@H]5CC(F)(F)C[C@@H]5OC(=O)Nc5cnc(C)nc5)cc4s3)cc(C)cc2n1 (racemic) [Example 97, rac-cis-4,4-difluoro-2-((5-fluoro-2-(2-methoxy-7-methylquinoxalin-5-yl)benzo[d]thiazol-6-yl)oxy)cyclopentyl (2-methylpyrimidin-5-yl)carbamate)]	9.2
COc1cnc2c(-c3nc4cc(F)c(O[C@@H]5CC(F)(F)C[C@@H]5OC(=O)Nc5cnc(C)nc5)cc4s3)cc(Cl)cc2c1 (racemic) [Example 98, rac-cis-2-((2-(6-chloro-3-methoxyquinolin-8-yl)-5-fluorobenzo[d]thiazol-6-yl)oxy)-4,4-difluorocyclopentyl (2-methylpyrimidin-5-yl)carbamate]	14
COc1cnc2c(-c3nc4cc(F)c(O[C@@H]5CCC(C)(C)[C@@H]5O)cc4s3)cc(C)cc2n1 (racemic) [Example 103, rac-cis-5-((5-fluoro-2-(2-methoxy-7-methyl)quinoxalin-5-yl)benzo[d]thiazol-6-yl)oxy)-2,2-dimethylcyclopentanol]	20
COc1cnc2c(-c3nc4cc(F)c(O[C@@H]5CCC(C)(C)[C@@H]5OC(=O)Nc5cnc(C)nc5)cc4s3)cc(C)cc2n1 (racemic) [Example 104, rac-cis-5-((5-fluoro-2-(2-methoxy-7-methylquinoxalin-5-yl)benzo[d]thiazol-6-yl)oxy)-2,2-dimethylcyclopentyl (2-methylpyrimidin-5-yl)carbamate]	2.4
COc1cnc2c(-c3nc4cc(F)c(O[C@H]5CCCC[C@H]5OC(=O)Nc5cccnc5)cc4s3)cc(C)cc2n1 (single isomer, unassigned; enantiomer 1) [Example 58, cis-2-((5-fluoro-2-(2-methoxy-7-methylquinoxalin-5-yl)benzo[d]thiazol-6-yl)oxy)cyclohexyl pyridin-3-ylcarbamate (Enantiomer 1)]	1.4
COc1cnc2c(-c3nc4cc(F)c(O[C@H]5CC(C)(C)C[C@H]5OC(=O)Nc5cnc(C)nc5)cc4s3)cc(C)cc2n1 (single isomer, unassigned; enantiomer 1) [Example 84, (cis)-2-((5-fluoro-2-(2-methoxy-7-methylquinoxalin-5-yl)benzo[d]thiazol-6-yl)oxy)-4,4-dimethylcyclopentyl (2-methylpyrimidin-5-yl)carbamate Enantiomer 1]	5.4
COc1cnc2c(-c3nc4cc(F)c(O[C@@H]5CCCC[C@@H]5OC(=O)Nc5cccnc5)cc4s3)cc(C)cc2n1 (single isomer, unassigned; enantiomer 2) [Example 59, cis-2-((5-fluoro-2-(2-methoxy-7-methylquinoxalin-5-yl)benzo[d]thiazol-6-yl)oxy)cyclohexyl pyridin-3-ylcarbamate (Enantiomer 2)]	77
COc1cnc2c(-c3nc4cc(F)c(O[C@@H]5CC(C)(C)C[C@@H]5OC(=O)Nc5cnc(C)nc5)cc4s3)cc(C)cc2n1 (single isomer, unassigned; enantiomer 2) [Example 85, (cis)-2-((5-fluoro-2-(2-methoxy-7-methylquinoxalin-5-yl)benzo[d]thiazol-6-yl)oxy)-4,4-dimethylcyclopentyl (2-methylpyrimidin-5-yl)carbamate Enantiomer 2]	41
